The record followed here is ChEMBL document CHEMBL5291721, “A preclinical secondary pharmacology resource illuminates target-adverse drug reaction associations of marketed drugs” (Nat Commun, 2023).

One assay deals with T1, Estrogen receptor (Homo sapiens, UniProt P03372).
T1 sequence (P03372 whole entry): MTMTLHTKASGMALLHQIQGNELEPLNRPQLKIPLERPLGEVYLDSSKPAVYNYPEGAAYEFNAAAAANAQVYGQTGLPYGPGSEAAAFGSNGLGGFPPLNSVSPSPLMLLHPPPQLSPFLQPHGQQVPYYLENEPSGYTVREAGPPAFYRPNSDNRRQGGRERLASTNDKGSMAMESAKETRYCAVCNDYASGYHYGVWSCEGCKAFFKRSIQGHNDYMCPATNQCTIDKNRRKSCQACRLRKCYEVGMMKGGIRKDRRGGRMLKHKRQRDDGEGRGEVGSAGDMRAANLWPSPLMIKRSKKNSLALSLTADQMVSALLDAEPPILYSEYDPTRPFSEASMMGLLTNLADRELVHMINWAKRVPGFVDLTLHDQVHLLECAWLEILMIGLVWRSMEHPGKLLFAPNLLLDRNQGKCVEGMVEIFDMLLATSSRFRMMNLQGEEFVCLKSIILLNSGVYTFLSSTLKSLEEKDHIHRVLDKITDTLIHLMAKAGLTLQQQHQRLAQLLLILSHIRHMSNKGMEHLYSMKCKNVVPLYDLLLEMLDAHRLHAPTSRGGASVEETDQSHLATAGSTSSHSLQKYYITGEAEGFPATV

Assay [1] addresses Vascular endothelial growth factor receptor 2 (Homo sapiens, UniProt P35968). The format is functional.
The target in assay [2] is Prostaglandin G/H synthase 1 (Homo sapiens, UniProt P23219). The format is functional.
Chain of Prostaglandin G/H synthase 1 (P23219 whole entry): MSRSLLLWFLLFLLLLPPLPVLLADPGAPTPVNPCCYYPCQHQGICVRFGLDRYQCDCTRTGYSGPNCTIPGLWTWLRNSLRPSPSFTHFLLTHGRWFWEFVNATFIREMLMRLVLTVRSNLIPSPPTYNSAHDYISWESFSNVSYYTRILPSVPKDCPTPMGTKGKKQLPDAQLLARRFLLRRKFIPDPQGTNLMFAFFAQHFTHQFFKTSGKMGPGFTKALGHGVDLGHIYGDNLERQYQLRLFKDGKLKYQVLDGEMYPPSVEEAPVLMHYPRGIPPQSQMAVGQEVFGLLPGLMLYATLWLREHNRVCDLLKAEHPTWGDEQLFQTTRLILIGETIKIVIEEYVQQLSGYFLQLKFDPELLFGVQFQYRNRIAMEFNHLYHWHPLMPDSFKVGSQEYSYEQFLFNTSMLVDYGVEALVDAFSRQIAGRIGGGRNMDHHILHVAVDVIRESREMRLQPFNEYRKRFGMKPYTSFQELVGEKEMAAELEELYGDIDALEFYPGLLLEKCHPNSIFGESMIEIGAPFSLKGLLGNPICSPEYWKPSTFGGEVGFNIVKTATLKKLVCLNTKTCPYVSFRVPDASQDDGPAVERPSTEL
For assay [3], the target named is T2, D(1A) dopamine receptor (Homo sapiens, UniProt P21728).
T2 sequence (P21728 whole entry): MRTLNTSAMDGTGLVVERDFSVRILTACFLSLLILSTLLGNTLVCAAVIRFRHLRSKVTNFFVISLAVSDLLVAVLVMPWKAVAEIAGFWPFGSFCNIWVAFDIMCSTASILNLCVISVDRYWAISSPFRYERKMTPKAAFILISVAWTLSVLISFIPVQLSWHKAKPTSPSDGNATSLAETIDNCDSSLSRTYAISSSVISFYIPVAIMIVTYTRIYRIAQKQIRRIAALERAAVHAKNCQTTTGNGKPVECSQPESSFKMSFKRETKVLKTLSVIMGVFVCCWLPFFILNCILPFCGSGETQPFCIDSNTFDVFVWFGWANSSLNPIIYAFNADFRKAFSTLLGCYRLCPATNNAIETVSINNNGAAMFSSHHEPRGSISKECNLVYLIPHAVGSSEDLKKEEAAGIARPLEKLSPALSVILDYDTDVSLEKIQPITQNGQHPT
The target in another assay is T3, Androgen receptor (Rattus norvegicus, UniProt P15207).
T3 sequence (P15207 whole entry): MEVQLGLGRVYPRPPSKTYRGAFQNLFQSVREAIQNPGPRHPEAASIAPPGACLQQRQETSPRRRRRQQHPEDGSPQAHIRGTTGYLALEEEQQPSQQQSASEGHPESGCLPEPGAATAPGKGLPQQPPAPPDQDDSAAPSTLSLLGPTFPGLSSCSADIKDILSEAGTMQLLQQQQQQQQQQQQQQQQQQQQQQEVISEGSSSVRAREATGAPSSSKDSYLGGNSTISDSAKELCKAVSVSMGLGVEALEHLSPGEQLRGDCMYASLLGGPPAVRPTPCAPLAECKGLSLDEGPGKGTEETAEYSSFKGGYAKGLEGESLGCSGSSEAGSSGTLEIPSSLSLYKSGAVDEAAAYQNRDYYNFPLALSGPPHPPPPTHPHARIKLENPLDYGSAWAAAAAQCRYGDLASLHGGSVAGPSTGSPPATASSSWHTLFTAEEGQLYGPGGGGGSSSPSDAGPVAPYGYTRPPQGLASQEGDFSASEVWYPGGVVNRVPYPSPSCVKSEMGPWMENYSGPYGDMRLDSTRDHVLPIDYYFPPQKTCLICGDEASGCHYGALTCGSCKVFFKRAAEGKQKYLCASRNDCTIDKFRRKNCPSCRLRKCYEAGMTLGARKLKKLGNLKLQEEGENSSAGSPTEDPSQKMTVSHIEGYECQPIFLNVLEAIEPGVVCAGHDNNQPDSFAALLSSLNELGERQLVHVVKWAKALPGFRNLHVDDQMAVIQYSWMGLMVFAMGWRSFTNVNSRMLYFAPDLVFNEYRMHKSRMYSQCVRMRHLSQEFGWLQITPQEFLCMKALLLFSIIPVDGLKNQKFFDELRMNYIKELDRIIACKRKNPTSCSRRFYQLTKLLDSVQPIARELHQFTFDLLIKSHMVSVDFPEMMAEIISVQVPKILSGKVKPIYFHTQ
The format is functional.

The target in the next assay is Cannabinoid receptor 1 (Homo sapiens, UniProt P21554).
Chain of Cannabinoid receptor 1 (P21554 whole entry): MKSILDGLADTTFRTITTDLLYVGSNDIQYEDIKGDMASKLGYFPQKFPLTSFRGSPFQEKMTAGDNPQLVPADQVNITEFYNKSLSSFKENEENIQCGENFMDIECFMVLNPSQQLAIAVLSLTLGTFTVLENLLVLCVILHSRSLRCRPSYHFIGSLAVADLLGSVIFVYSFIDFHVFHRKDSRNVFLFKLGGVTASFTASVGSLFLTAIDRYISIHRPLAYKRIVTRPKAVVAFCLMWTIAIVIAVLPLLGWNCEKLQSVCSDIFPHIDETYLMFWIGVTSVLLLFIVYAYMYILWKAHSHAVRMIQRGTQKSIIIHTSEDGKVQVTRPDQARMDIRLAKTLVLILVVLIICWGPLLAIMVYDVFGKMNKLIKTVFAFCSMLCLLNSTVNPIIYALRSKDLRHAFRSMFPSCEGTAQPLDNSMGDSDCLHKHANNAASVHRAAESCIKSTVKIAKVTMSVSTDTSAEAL
The target of assay [4] is T2, D(1A) dopamine receptor. The format is functional, cell-based.
The next assay addresses T4, Endothelin-1 receptor (Homo sapiens, UniProt P25101).
T4 sequence (P25101 whole entry): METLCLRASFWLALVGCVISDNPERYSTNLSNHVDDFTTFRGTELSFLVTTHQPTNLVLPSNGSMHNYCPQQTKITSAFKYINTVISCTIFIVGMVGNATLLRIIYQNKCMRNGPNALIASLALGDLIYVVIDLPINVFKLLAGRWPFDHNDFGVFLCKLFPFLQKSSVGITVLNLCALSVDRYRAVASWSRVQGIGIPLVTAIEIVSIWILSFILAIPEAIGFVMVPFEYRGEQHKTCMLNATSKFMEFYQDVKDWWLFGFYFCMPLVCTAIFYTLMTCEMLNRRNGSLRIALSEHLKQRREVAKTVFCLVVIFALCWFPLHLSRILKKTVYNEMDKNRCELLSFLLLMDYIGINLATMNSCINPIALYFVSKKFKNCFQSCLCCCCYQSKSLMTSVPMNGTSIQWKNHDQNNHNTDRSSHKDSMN

Assay [5] deals with T5, 5-hydroxytryptamine receptor 1A (Homo sapiens, UniProt P08908).
T5 sequence (P08908 whole entry): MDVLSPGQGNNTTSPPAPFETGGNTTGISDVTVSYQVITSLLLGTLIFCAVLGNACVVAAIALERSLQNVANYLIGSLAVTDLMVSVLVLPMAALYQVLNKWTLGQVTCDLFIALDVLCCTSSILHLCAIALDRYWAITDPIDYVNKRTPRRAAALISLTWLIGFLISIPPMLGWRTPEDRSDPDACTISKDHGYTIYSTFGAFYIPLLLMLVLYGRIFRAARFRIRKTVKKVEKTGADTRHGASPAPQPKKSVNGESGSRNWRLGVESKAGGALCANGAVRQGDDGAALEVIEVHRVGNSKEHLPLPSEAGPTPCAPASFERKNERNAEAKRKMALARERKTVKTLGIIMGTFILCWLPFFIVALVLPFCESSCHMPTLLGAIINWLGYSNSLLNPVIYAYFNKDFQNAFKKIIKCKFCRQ
Format: functional, cell-based.

The target in assay [6] is Kappa-type opioid receptor (Homo sapiens, UniProt P41145).
Chain of Kappa-type opioid receptor (P41145 whole entry): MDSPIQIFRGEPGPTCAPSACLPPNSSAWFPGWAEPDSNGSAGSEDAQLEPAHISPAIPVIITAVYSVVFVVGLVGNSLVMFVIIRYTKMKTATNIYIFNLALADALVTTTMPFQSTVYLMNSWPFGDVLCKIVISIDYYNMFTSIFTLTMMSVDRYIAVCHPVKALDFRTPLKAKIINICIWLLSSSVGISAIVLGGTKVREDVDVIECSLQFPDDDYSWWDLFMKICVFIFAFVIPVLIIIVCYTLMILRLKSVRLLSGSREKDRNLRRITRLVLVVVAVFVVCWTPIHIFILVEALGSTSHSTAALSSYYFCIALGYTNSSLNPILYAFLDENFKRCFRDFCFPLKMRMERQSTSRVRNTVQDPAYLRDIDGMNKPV
Assay [7] addresses 3',5'-cyclic-AMP phosphodiesterase 4D (Homo sapiens, UniProt Q08499). Format: functional.
The next assay deals with Histamine H3 receptor (Homo sapiens, UniProt Q9Y5N1).
Chain of Histamine H3 receptor (Q9Y5N1 whole entry): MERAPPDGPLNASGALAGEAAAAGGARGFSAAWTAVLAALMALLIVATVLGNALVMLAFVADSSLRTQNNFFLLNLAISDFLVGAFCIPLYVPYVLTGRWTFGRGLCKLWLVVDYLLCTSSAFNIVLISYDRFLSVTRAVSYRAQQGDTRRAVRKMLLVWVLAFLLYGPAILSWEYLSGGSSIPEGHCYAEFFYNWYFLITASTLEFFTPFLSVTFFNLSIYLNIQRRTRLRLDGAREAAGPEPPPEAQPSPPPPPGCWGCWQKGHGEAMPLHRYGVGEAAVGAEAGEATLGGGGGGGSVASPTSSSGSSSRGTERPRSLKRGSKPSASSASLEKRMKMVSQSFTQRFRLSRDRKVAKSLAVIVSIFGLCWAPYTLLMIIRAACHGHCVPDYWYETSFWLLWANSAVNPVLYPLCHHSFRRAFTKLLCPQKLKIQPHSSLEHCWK
Further: assay procedure not described here.

Chain of Vascular endothelial growth factor receptor 2 (P35968 whole entry): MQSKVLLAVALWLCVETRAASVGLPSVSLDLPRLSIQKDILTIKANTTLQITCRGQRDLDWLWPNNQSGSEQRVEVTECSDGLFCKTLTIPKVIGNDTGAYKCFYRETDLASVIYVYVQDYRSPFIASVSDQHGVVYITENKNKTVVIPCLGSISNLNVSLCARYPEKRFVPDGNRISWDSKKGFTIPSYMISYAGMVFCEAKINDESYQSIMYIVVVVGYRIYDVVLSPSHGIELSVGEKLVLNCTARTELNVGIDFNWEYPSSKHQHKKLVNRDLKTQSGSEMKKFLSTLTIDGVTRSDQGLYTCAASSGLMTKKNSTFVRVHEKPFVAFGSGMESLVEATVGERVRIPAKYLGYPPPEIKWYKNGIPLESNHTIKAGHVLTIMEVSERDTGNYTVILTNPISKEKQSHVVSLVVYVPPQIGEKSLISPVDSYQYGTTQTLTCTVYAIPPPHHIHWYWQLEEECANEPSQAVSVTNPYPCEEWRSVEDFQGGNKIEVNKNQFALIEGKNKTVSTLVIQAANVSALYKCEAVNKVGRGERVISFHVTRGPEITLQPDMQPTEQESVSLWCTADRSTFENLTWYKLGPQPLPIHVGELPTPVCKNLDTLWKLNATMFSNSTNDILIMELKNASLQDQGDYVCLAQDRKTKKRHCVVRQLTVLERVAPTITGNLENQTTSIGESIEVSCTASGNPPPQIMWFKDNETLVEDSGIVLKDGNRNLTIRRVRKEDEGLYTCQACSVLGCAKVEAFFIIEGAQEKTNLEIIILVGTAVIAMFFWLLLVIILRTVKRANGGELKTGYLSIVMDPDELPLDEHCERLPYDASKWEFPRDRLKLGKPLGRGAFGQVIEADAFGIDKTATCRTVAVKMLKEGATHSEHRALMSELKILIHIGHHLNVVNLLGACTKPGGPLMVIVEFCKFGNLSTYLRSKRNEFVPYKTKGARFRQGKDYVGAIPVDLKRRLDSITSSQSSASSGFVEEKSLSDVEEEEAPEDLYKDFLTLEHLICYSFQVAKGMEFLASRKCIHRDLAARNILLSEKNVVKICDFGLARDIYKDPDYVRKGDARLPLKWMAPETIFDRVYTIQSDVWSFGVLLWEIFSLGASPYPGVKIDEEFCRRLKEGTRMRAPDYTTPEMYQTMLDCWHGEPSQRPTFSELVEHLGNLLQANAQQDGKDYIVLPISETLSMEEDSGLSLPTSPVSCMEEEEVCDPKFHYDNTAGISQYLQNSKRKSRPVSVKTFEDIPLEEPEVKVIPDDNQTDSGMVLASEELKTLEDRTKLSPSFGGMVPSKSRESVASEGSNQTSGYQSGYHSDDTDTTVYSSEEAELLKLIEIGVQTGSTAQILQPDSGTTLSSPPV
Chain of 3',5'-cyclic-AMP phosphodiesterase 4D (Q08499 whole entry): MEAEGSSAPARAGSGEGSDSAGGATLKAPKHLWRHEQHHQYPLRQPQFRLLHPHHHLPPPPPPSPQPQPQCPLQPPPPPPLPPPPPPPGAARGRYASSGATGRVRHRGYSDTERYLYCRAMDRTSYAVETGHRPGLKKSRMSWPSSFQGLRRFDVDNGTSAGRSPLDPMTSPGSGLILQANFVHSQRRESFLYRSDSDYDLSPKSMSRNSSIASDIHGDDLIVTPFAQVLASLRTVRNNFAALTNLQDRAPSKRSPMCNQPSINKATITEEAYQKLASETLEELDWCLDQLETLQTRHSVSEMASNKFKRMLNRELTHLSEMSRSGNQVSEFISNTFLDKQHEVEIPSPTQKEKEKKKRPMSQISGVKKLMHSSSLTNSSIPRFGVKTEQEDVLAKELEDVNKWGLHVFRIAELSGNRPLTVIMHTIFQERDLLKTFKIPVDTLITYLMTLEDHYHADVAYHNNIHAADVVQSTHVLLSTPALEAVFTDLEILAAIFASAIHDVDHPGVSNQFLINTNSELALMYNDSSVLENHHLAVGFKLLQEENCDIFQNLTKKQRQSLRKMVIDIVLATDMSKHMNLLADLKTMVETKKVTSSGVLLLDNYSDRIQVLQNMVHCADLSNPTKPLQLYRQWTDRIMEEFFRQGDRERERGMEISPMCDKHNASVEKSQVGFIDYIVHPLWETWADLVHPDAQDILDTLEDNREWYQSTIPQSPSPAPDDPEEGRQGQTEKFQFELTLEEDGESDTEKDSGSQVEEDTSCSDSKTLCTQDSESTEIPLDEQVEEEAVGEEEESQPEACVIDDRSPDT

A word on the AC50: it is the midpoint of the concentration-response curve, whichever way the signal moves. Take `CN(C)c1ccc(C(=C2C=CC(=[N+](C)C)C=C2)c2ccc(N(C)C)cc2)cc1` [GENTIAN VIOLET]: the AC50 was greater than 30 µM on Estrogen receptor, 2970 nM in [1] and 11.8 µM in [2].
`Nc1ccc(S(N)(=O)=O)cc1` [SULFANILAMIDE] had an AC50 at D(1A) dopamine receptor [3] greater than 30 µM.
Take HYDROXOCOBALAMIN: the AC50 (at Androgen receptor; at Cannabinoid receptor 1; at D(1A) dopamine receptor [4]; on Endothelin-1 receptor; in assay [5]; in assay [6]) was greater than 30 µM each time. Besides, the AC50 (in assay [7]; at Histamine H3 receptor) was greater than 30 µM each time.
